72 molecules from ChEMBL document CHEMBL1136053, “Development of new hydrogen-bond descriptors and their application to comparative molecular field analyses” (J Med Chem, 2002) can be followed below.

In general, Ki refers to a measure of affinity in units of concentration, obtained from inhibition or displacement. A high value points to a looser hold on the target. By pKi is commonly meant −log10 of the Ki, conventionally taken in molar units. A higher pKi goes with a small Ki.

The structures appear in SMILES notation. Non-standard residues stand in square brackets, D forms with d. Residues, ends and D or L forms follow the SMILES beside them. ξ: configuration not given here. *: point of attachment. ξF = NC(Cc1ccccc1)C(=O)O; Cbz = O=C(OCc1ccccc1)*; NHOH = ON*

The target of this assay is T1, Thermolysin (Bacillus thermoproteolyticus, UniProt P00800).
T1 sequence (P00800 whole entry): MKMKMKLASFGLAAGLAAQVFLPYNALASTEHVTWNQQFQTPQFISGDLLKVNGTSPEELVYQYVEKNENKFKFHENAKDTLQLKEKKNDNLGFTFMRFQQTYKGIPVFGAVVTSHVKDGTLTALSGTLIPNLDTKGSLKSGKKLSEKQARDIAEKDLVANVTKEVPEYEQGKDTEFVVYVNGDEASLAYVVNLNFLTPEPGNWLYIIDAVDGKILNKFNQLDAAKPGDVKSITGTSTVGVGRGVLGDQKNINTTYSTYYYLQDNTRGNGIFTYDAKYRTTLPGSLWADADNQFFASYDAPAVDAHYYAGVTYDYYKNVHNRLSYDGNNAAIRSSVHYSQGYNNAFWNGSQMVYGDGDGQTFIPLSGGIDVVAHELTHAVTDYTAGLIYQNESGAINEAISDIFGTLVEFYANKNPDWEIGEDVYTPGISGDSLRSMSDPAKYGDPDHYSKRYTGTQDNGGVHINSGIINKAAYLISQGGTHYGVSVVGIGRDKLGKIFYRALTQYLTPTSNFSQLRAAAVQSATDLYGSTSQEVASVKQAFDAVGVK
The assay can be described thus: pKi value expresses binding affinity against thermolysin pKi = -logKi (where Ki is in mol/L).
Take `C[C@H](NC(=O)[C@H](C)NP(=O)(O)O)C(=O)O`: the Ki was 87.1 µM.

For the molecule `C[C@H](C(=O)NO)C(=O)N[C@@H](C)C(=O)NCC(N)=O`, affinity was put at a Ki of 1100 µM. Same read-out and setting: the value for `CC(C)C[C@H](NC(=O)CNC(=O)OCc1ccccc1)C(N)=O` was 20900 µM; that for `C[C@H](NC(=O)[C@H](Cc1ccccc1)NS(=O)(=O)O)C(=O)NCC(N)=O` was 4270 µM. The same measure, in the same setting: the result for `C[C@H](NC(=O)[C@H](Cc1ccccc1)NP(=O)(O)S)C(=O)NCC(N)=O` (some centres not stated) reads 6.92 µM. The molecule `C[C@H](NC(=O)[C@H](Cc1ccccc1)C(=O)NO)C(=O)NCC(=O)O` showed a Ki of 0.661 µM. `CC(C)C[C@H](C(=O)NO)C(=O)N[C@@H](C)C(=O)NCC(N)=O` gave a Ki of 0.479 µM. The same measure, in the same setting: the value for `C[C@H](NC(=O)[C@H](Cc1ccccc1)NC(=O)CO)C(=O)NCC(N)=O` was 2880 µM. `C[C@H](NC(=O)[C@H](Cc1ccccc1)C(=O)NO)C(=O)NCC(N)=O` showed a Ki of 0.661 µM. Compared with the last molecule, the Ki is about 4400-fold lower. The same measure, in the same setting: the value for `CC(C)C[C@H](NC(=O)CNC(=O)CNC(=O)OCc1ccccc1)C(=O)NO` was 38.9 µM. Still for that read-out and setting: the result for `CC(=O)CC(=O)N[C@@H](Cc1ccccc1)C(=O)N[C@@H](C)C(=O)NCC(N)=O` reads 3090 µM. The same measure, in the same setting: the value for `C[C@H](NC(=O)[C@@H](CS)Cc1ccccc1)C(=O)NCC(N)=O` was 0.759 µM; that for `C[C@H](NC(=O)[C@H](Cc1ccccc1)C(=O)O)C(=O)NCC(N)=O` was 417 µM. With `CC(C)C[C@@H](C(=O)N[C@@H](C)C(=O)NCC(N)=O)N(O)C=O`, the Ki was 3390 µM. Same read-out and setting: the value for `CC(C)C[C@H](NC(=O)CNC(=O)OCc1ccccc1)C(=O)NO` was 12.9 µM; that for `CC[C@H](C)[C@H](NP(=O)(O)O)C(=O)N[C@@H](C)C(=O)O` was 0.363 µM; that for `O=C(NC(Cc1ccccc1)C(=O)O)OCc1ccccc1` (configuration not stated) was 513 µM. Same read-out and setting: the value for `CC(=O)N(O)[C@@H](CC(C)C)C(=O)N[C@@H](C)C(=O)NCC(N)=O` was 3390 µM.

The molecule `CC(C)CC(OP(=O)(O)CNC(=O)OCc1ccccc1)C(=O)NC(C)C(=O)O` (configuration not stated) gave a Ki of 12.9 µM. This Ki lies about 260-fold lower than the previous one. Same read-out and setting: the result for `CC(C)CC(OP(=O)(O)C(Cc1ccccc1)NC(=O)OCc1ccccc1)C(=O)NC(C)C(=O)O` (configuration not stated) reads 0.0447 µM; that for `CC(C)CC(NC(CCc1cccc(CN)c1)C(=O)O)C(=O)NC(Cc1ccccc1)C(=O)O` (configuration not stated), 1.7 µM; that for `CC(C)CC(NC(=O)CNC(=O)OCc1ccccc1)C(=O)N(C)O` (configuration not stated), 2240 µM. On the same count and under the same terms, the value for `CC(C)CC(OP(=O)(O)C(C)NC(=O)OCc1ccccc1)C(=O)NC(C)C(=O)O` (configuration not stated) was 1.82 µM. Same read-out and setting: the result for `CC(C)CC(NC(CCNC(=O)C(Cc1ccccc1)NC(=O)OCc1ccccc1)C(=O)O)C(=O)NC(Cc1ccccc1)C(=O)O` (configuration not stated) reads 0.219 µM. As to `CC(C)CC(NC(C)C(=O)O)C(=O)NC(Cc1ccccc1)C(=O)O` (configuration not stated), the affinity, expressed as Ki, was 2.82 µM. On the same count and under the same terms, the result for `CC(C)CC(NC(CCc1ccccc1)C(=O)O)C(=O)NC(Cc1ccccc1)C(=O)O` (configuration not stated) reads 0.603 µM. Take `CC(C)CC(NP(=O)(O)CNC(=O)OCc1ccccc1)C(N)=O` (configuration not stated): the Ki is 0.759 µM. The same measure, in the same setting: the result for `CC(C)C[C@@H](NC(=O)CNC(=O)OCc1ccccc1)C(=O)NO` reads 47.9 µM.

On to `CCCCCCP(=O)(O)CC(CC(C)C)C(=O)NC(Cc1c[nH]c2ccccc12)C(=O)NC` (configuration not stated), for which the Ki was 0.0525 µM. This Ki is about 910-fold lower than that of the molecule before.

`CC(C)CC(CP(=O)(O)CNC(=O)OCc1ccccc1)C(=O)NCC(=O)O` (configuration not stated): the Ki is 0.302 µM.

For the molecule `CC(C)CC(NP(=O)(O)CNC(=O)OCc1ccccc1)C(=O)NC(Cc1ccccc1)C(=O)O` (configuration not stated), the Ki was 0.0759 µM. Still for that read-out and setting: the result for `CC(C)CC(OP(=O)(O)[C@@H](Cc1ccccc1)NC(=O)OCc1ccccc1)C(=O)NC(C)C(=O)O` (some centres not stated) reads 30.2 µM; that for `CC(C)CC(OP(=O)(O)CNC(=O)OCc1ccccc1)C(N)=O` (configuration not stated), 661 µM; that for `CC(C)C[C@H](NC(CCc1ccccc1)C(=O)O)C(=O)N[C@@H](Cc1c[nH]c2ccccc12)C(=O)O` (some centres not stated), 0.0339 µM. In the case of `CC(C)CC(NP(=O)(O)[C@@H](Cc1ccccc1)NC(=O)OCc1ccccc1)C(=O)NC(C)C(=O)O` (some centres not stated), the Ki was 0.479 µM. Still for that read-out and setting: the value for `O=C(O)CC(=O)NC(CS)Cc1ccccc1` (configuration not stated) was 2.29 µM; that for `CC(C)CC(OP(=O)(O)CNC(=O)OCc1ccccc1)C(=O)NC(Cc1ccccc1)C(=O)O` (configuration not stated) was 53.7 µM.

Take `CCCCCCP(=O)(O)NC(CC(C)C)C(=O)NC(Cc1c[nH]c2ccccc12)C(=O)NC` (configuration not stated): the Ki is 0.00151 µM. The same measure, in the same setting: the result for `CC(C)CC(OP(=O)(O)[C@@H](CC(C)C)NC(=O)OCc1ccccc1)C(=O)NC(C)C(=O)O` (some centres not stated) reads 41.7 µM. The same measure, in the same setting: the value for `CC(C)CC(CP(=O)(O)CNC(=O)OCc1ccccc1)C(=O)NC(C)C(=O)O` (configuration not stated) was 0.0186 µM; that for `CC(C)CC(OP(=O)(O)[C@@H](C)NC(=O)OCc1ccccc1)C(=O)NC(C)C(=O)O` (some centres not stated) was 24 µM. Same read-out and setting: the value for `CC(C)CC(NP(=O)(O)O)C(N)=O` (configuration not stated) was 79.4 µM. In turn, `CC(NC(=O)C(Cc1ccccc1)NP(=O)(O)O)C(=O)NCC(N)=O` (configuration not stated) showed a Ki of 2.57 µM. This Ki is about 31-fold lower than that of the molecule before. Same read-out and setting: the value for `CC(C)CC(NC(CCNC(=O)C(C)NC(=O)OCc1ccccc1)C(=O)O)C(=O)NC(Cc1ccccc1)C(=O)O` (configuration not stated) was 0.851 µM. The same measure, in the same setting: the value for `CC(C)CC(OP(=O)(O)C(CC(C)C)NC(=O)OCc1ccccc1)C(=O)NC(C)C(=O)O` (configuration not stated) was 0.676 µM; that for `CC(C)CC(NP(=O)(O)OC1OC(C)C(O)C(O)C1O)C(=O)NC(Cc1c[nH]c2ccccc12)C(=O)O` (configuration not stated) was 0.0282 µM; that for `CCCCCCP(=O)(O)OC(CC(C)C)C(=O)NC(Cc1c[nH]c2ccccc12)C(=O)NC` (configuration not stated) was 1.45 µM.

Take `CC(C)CC(NC(CCNC(=O)C(Cc1ccccc1)NC(=O)OCc1ccccc1)C(=O)O)C(=O)NC(Cc1c[nH]c2ccccc12)C(=O)O` (configuration not stated): the Ki was 0.011 µM. This Ki is about 130-fold lower than that of the molecule before. The same measure, in the same setting: the result for `CC(C)CC(CP(=O)(O)CNC(=O)OCc1ccccc1)C(=O)NC(CC(C)C)C(=O)O` (configuration not stated) reads 0.182 µM; that for `O=C(O)C(Cc1ccccc1)NP(=O)(O)O` (configuration not stated), 72.4 µM; that for `CC(C)CC(NP(=O)(O)O)C(=O)NC(Cc1ccccc1)C(=O)O` (configuration not stated), 0.0191 µM. On the same count and under the same terms, the result for `CC(C)CC(NC(=O)NNC(=O)OCc1ccccc1)C(=O)NO` (configuration not stated) reads 2.69 µM; that for `CC(C)CC(N)C(=O)NO` (configuration not stated), 191 µM. `CC(C)C[C@@H](NC(=O)CNC(=O)CNC(=O)OCc1ccccc1)C(=O)NO` returned a pKi of 3.6. `CCOC(=O)C(Cc1ccccc1)C(=O)NO` (configuration not stated) had a Ki of 20 µM.

Turning to `CC(C)CC(NC(=O)C(CC(C)C)OP(=O)(O)CNC(=O)OCc1ccccc1)C(=O)O` (configuration not stated), the affinity, expressed as Ki, was 8.91 µM. Still for that read-out and setting: the result for `CC(C)CC(OP(=O)(O)CNC(=O)OCc1ccccc1)C(=O)NCC(=O)O` (configuration not stated) reads 229 µM; that for `CC(C)CC(NP(=O)(O)CNC(=O)OCc1ccccc1)C(=O)NCC(=O)O` (configuration not stated), 0.269 µM; that for `CCCCC(NC(CC(C)C)C(=O)NC(Cc1ccccc1)C(=O)O)C(=O)O` (configuration not stated), 3800 µM. The same measure, in the same setting: the result for `CC(C)CC(NC(=O)C(CC(C)C)NP(=O)(O)CNC(=O)OCc1ccccc1)C(=O)O` (configuration not stated) reads 0.00912 µM.

For the molecule `CC(C)CC(NP(=O)(O)CNC(=O)OCc1ccccc1)C(=O)NC(C)C(=O)O` (configuration not stated), the Ki is 0.0166 µM. Still for that read-out and setting: the value for `O=C(CCc1ccccc1)NC(Cc1ccccc1)C(=O)O` (configuration not stated) was 1620 µM; that for `CC(C)CC(NC(CCNC(=O)CNC(=O)OCc1ccccc1)C(=O)O)C(=O)NC(Cc1ccccc1)C(=O)O` (configuration not stated) was 0.407 µM; that for `CC(C)CC(NP(=O)(O)C(Cc1ccccc1)NC(=O)OCc1ccccc1)C(=O)NC(C)C(=O)O` (configuration not stated) was 6.76e-05 µM. The same measure, in the same setting: the result for `CC(C)CC(CP(=O)(O)CNC(=O)OCc1ccccc1)C(=O)NC(Cc1ccccc1)C(=O)O` (configuration not stated) reads 0.0661 µM. The molecule `CC(C)CC(CP(=O)(O)CNC(=O)OCc1ccccc1)C(N)=O` (configuration not stated) showed a Ki of 1.41 µM. On the same count and under the same terms, the value for `CC(C)CC(NC(=O)NNC(=O)OCc1ccccc1)C(N)=O` (configuration not stated) was 380 µM; that for `CC(NC(=O)C(Cc1ccccc1)C(=O)NO)C(=O)NCC(=O)Nc1ccc([N+](=O)[O-])cc1` (configuration not stated) was 0.427 µM; that for `NC(=O)CNC(=O)C(Cc1ccc(O)cc1)NC(=O)OCc1ccccc1` (configuration not stated) was 219 µM. Same read-out and setting: the result for `O=C(CNC(=O)CNC(=O)OCc1ccccc1)NO` (Cbz-Gly-Gly-{NHOH}) reads 933 µM; that for `CC(C)C[C@H](NC(=O)OCc1ccccc1)C(=O)NCC(N)=O` (Cbz-Leu-Gly-NH2), 3090 µM; that for `NC(=O)CNC(=O)C(Cc1ccccc1)NC(=O)OCc1ccccc1` (configuration not stated) (Cbz-[ξF]-Gly-NH2), 347 µM.
